In US20240383856A1 (Zedira GmbH, priority 2021, published 2024):

Legend:
[1] = molecular target: T1, recombinant human transglutaminase 2 (Homo sapiens, UniProt P21980); experiment: Transglutaminase assay (DCC-assay): incorporation of dansylcadaverine into dimethylcasein; assay type: biochemical; details: recombinant human TG2 10 nM; dansylcadaverine incorporation into dimethylcasein; read-out: IC50 TG2
T1 construct: purchased Zedira T022
T1 sequence (P21980 1-687): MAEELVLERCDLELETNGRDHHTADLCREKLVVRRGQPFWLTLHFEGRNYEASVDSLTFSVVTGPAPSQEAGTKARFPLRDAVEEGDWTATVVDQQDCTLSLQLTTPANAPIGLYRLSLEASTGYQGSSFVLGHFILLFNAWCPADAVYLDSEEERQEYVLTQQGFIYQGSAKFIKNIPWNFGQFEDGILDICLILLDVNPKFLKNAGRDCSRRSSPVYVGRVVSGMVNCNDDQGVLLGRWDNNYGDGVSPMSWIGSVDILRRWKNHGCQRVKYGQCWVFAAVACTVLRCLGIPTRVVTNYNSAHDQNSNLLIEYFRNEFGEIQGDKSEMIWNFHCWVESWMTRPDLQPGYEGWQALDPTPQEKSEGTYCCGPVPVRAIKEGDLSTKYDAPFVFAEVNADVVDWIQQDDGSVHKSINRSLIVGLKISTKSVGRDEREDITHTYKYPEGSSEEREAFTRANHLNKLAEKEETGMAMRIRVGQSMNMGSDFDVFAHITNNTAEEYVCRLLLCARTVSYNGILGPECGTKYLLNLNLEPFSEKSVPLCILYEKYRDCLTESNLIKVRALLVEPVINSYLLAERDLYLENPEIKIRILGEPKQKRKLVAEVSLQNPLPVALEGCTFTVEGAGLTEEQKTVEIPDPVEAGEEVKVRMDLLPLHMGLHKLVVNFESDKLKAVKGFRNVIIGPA
Protocol: To illustrate the advantage of branched alkyl moieties over aromatic moieties, we refer to reference compounds Ref. 2 (ZED1227, U.S. Pat. No. 9,434,763 B2) and Ref. 3 (A8, ZED1047). Inhibition data were determined using the classical fluorescent transamidation assay (dansylcadaverine incorporation into methylated casein, DCC-assay) as described [Buchold, C.; Hils, M.; Gerlach, U.; Weber, J.; Pelzer, C.; Heil, A.; Aeschlimann, D.; Pasternack, R. Features of ZED1227: The First-In-Class Tissue Transglutaminase Inhibitor Undergoing Clinical Evaluation for the Treatment of Celiac Disease. Cells 2022, 11, 1667. https://doi.org/10.3390/cells11101667]. Casein is one of the best known high molecular weight (24 kDa) protein substrates for transglutaminases. Please note, the IC50 value of Ref. 3 (A8) published in U.S. Pat. No. 9,434,763 B2 cannot be compared to the present data, relying on a fluorogenic isopeptidase assay.
To this extent, inhibition data were determined using the classical fluorescent transamidation assay (dansylcadaverine incorporation into methylated casein, DCC-assay) as described in Büchold et al. [Büchold, C.; Hils, M.; Gerlach, U.; Weber, J.; Pelzer, C.; Heil, A.; Aeschlimann, D.; Pasternack, R. Features of ZED1227: The First-In-Class Tissue Transglutaminase Inhibitor Undergoing Clinical Evaluation for the Treatment of Celiac Disease. Cells 2022, 11, 1667. https://doi.org/10.3390/cells11101667]. Casein is one of the best known high molecular weight (24 kDa) protein substrates for transglutaminases. Inhibition data of the inventive compounds was compared with inhibition of compounds disclosed in U.S. Pat. No. 9,434,763 B2, particularly, compound A8, which is denoted herein as Reference 3. It is noteworthy that the IC50 values of compounds A8 published in U.S. Pat. No. 9,434,763 B2 and E16 from U.S. Pat. No. 11,072,634 B2 cannot be compared to the present data, relying on a fluorogenic isopeptidase assay.
For the determination of potency of inhibitors against tissue transglutaminase, the incorporation of dansylcadaverine into dimethylcasein (Zedira product T036, Lorand et al., Anal Biochem, 1971, 44:221-31) was measured using recombinant human transglutaminase 2 (Zedira Product T022).
The tissue transglutaminase is diluted in buffer (50 mM Tris-HCl, 7.5 mM CaCl2), 150 mM NaCl, pH=7.4). The final concentration of TG2 in the assay is 10 nM.
A 10 mM inhibitor stock solution is prepared in DMSO, and from this a serial 1:2-fold dilution series is prepared also in DMSO. Each of the initial dilutions is subsequently diluted 1:50-fold with buffer (50 mM Tris-HCl, 7.5 mM CaCl2), 150 mM NaCl, pH=7.4) to yield the final working dilutions containing 2% (v/v) DMSO.
15 μl of inhibitor working dilution are added per well of a 96 well microtiter plate. As control, 15 μl of a 2% (v/v) DMSO solution prepared using the buffer mentioned above are added per well.
Immediately before starting the assay, 600 μl transglutaminase working solution are added to 11.4 ml assay buffer (50 mM Tris-HCl, 10 mM CaCl2), 10 mM glutathione, 2.5% glycerol, 16.7 µM dansylcadaverine, 4 uM N,N-dimethylcasein, 200 mM NaCl, pH=8.0). 285 μl of this reaction mix are added per well containing the inhibitor.
Increase in fluorescence is measured using λex=330 nm and λem=500 nm at 37° C. for 30 min. A slope of the increase in fluorescence between 20 and 30 min is calculated for determination of the IC50 value (inhibitor concentration at which 50% of the initial activity is blocked).
Analysis of enzymatic activity is performed by calculation of the slope of an increase in fluorescence intensity. IC50 values are calculated by plotting the enzymatic activity (as percentage from control containing 2% DMSO instead of inhibitor) against the inhibitor concentration. IC50 is defined as the inhibitor concentration blocking 50% of initial enzyme activity.

[2] = logD by shake flask method (octanol / PBS pH 7.4, HPLC); assay type: physicochemical; details: octanol / PBS pH 7.4, shake flask
Protocol: In order to classify the inventive compounds according to their lipophilicity, LogD values (distribution coefficient) were determined by means of the well-established shake flask method, measuring the partition of a compound between an octanol and phosphate-buffered saline (PBS, pH 7.4) by HPLC.
The LogD is pH dependent and is a “predictor” for in-vivo properties. LogD combines lipophilicity (intrinsic structural property of the molecule, logP) and ionizability (pKa). Compounds with a moderate lipophilicity (LogD values from 0 to 3) are usually advantaged for oral absorption, being in balance between solubility and permeability. However, sophisticated formulation of a compound might improve oral bioavailability for highly lipophilic compounds.

[3] = Caco-2 permeability assay (CacoReady kit); assay type: in vitro ADME; details: human, Caco-2, Caco-2 barrier, CacoReady kit; above 1×10^−6 cm/s classified as permeable
Protocol: Permeability coefficients (Papp values) were obtained from Caco-2 barrier studies predicting oral/intestinal bioavailability of the tested compounds. The assays were performed by using CacoReady™ ready-to-use kits from ReadyCell according to the manufacturers protocol.

Compound	IC50 [1]	logD [2]	Papp [3]
CNC(=O)C(=O)CC[C@H](NC(=O)c1cnnn1C)C(=O)Nc1cccn(CC(=O)NC2C3CC4CC(C3)CC2C4)c1=O (stereo partly drawn) [II-51, (S)-N1-(1-(2-(2-adamantylamino)-2-oxoethyl)-2-oxo-1,2-dihydropyridin-3-yl)-N6-methyl-2-(1-methyl-1H-1,2,3-triazole-5-carboxamido)-5-oxohexanediamide]	40 to 400 nM	< 1	1 to 10 ×10⁻⁶ cm/s
CNC(=O)C(=O)CC[C@H](NC(=O)c1oc2ccccc2c1C)C(=O)Nc1cccn(CC(=O)N(C)C2C3CC4CC(C3)CC2C4)c1=O (stereo partly drawn) [II-67, (S)-N1-(1-(2-(2-adamantyl(methyl)amino)-2-oxoethyl)-2-oxo-1,2-dihydropyridin-3-yl)-N6-methyl-2-(3-methylbenzofuran-2-carboxamido)-5-oxohexanediamide]	400 to 2500 nM	3 to 5	1 to 10 ×10⁻⁶ cm/s
CNC(=O)C(=O)CC[C@H](NC(=O)c1nn[nH]n1)C(=O)Nc1cccn(CC(=O)NC2C3CC4CC(C3)CC2C4)c1=O (stereo partly drawn) [II-52, (S)-N1-(1-(2-(2-adamantylamino)-2-oxoethyl)-2-oxo-1,2-dihydropyridin-3-yl)-N6-methyl-5-oxo-2-(2H-tetrazole-5-carboxamido)hexanediamide]	400 to 2500 nM	< 1	< 1 ×10⁻⁶ cm/s
CNC(=O)C(=O)CC[C@H](NC(=O)C1Cc2ccccc2C1)C(=O)Nc1cccn(CC(=O)NC2C3CC4CC(C3)CC2C4)c1=O (stereo partly drawn) [II-13, (S)-2-(2,3-dihydro-1H-indene-2-carboxamido)-N1-(1-(2-(2-adamantylamino)-2-oxoethyl)-2-oxo-1,2-dihydropyridin-3-yl)-N6-methyl-5-oxohexanediamide]	< 40 nM	1 to 3	1 to 10 ×10⁻⁶ cm/s
CNC(=O)C(=O)CC[C@H](NC(=O)c1oc(Br)cc1C)C(=O)Nc1cccn(CC(=O)NC2C3CC4CC(C3)CC2C4)c1=O (stereo partly drawn) [II-25, (S)-2-(5-bromo-3-methylfuran-2-carboxamido)-N1-(1-(2-(2-adamantylamino)-2-oxoethyl)-2-oxo-1,2-dihydropyridin-3-yl)-N6-methyl-5-oxohexanediamide]	40 to 400 nM	1 to 3	1 to 10 ×10⁻⁶ cm/s
O=C(Cn1cccc(NC(=O)[C@H](CCC(=O)C(=O)NC2CCCC2)NC(=O)c2cn3ccsc3n2)c1=O)N[C@@H]1C[C@@H]2CC[C@H]1C2 [II-179, (S)-N1-(1-(2-((1S,2R,4R)-bicyclo[2.2.1]heptan-2-ylamino)-2-oxoethyl)-2-oxo-1,2-dihydropyridin-3-yl)-N6-cyclopentyl-2-(imidazo[2,1-b]thiazole-6-carboxamido)-5-oxohexanediamide]	400 to 2500 nM	1 to 3	1 to 10 ×10⁻⁶ cm/s
CNC(=O)C(=O)CC[C@H](NC(=O)c1ccnn1C)C(=O)Nc1cccn(CC(=O)N[C@@H]2C[C@H]3CC[C@@H]2C3)c1=O [II-153, (S)-N1-(1-(2-((1R,2R,4S)-bicyclo[2.2.1]heptan-2-ylamino)-2-oxoethyl)-2-oxo-1,2-dihydropyridin-3-yl)-N6-methyl-2-(1-methyl-1H-pyrazole-5-carboxamido)-5-oxohexanediamide]	400 to 2500 nM	< 1	< 1 ×10⁻⁶ cm/s
CNC(=O)C(=O)CC[C@H](NC(=O)c1coc(S(N)(=O)=O)c1)C(=O)Nc1cccn(CC(=O)NC2C3CC4CC2CC(NC(C)=O)(C4)C3)c1=O (stereo partly drawn) [II-193, (S)-N1-(1-(2-(1-acetylamino-4-aminoadamantane)-2-oxoethyl)-2-oxo-1,2-dihydropyridin-3-yl)-N6-methyl-5-oxo-2-(5-sulfamoylfuran-3-carboxamido)hexanediamide]	400 to 2500 nM	< 1	< 1 ×10⁻⁶ cm/s
CNC(=O)C(=O)CC[C@H](NC(=O)c1ccc(Cl)s1)C(=O)Nc1cccn(CC(=O)NC2C3CC4CC(C3)CC2C4)c1=O (stereo partly drawn) [II-24, (S)-2-(5-chlorothiophene-2-carboxamido)-N1-(1-(2-(2-adamantylamino)-2-oxoethyl)-2-oxo-1,2-dihydropyridin-3-yl)-N6-methyl-5-oxohexanediamide]	40 to 400 nM	1 to 3	1 to 10 ×10⁻⁶ cm/s
CNC(=O)C(=O)CC[C@H](NC(=O)c1oc2ccccc2c1C)C(=O)Nc1cccn(CC(=O)NC2CC3CCC2CC3)c1=O (stereo partly drawn) [II-98, (2S)-N1-(1-(2-(bicyclo[2.2.2]octan-2-ylamino)-2-oxoethyl)-2-oxo-1,2-dihydropyridin-3-yl)-N6-methyl-2-(3-methylbenzofuran-2-carboxamido)-5-oxohexanediamide]	40 to 400 nM	1 to 3	1 to 10 ×10⁻⁶ cm/s
CNC(=O)C(=O)CC[C@H](NC(=O)c1c[nH]cc1C(C)(C)C)C(=O)Nc1cccn(CCC23CC4CC(CC(C4)C2)C3)c1=O [II-164]	400 to 2500 nM	3 to 5	1 to 10 ×10⁻⁶ cm/s
CNC(=O)C(=O)CC[C@H](NC(=O)c1cn(C)nn1)C(=O)Nc1cccn(CC(=O)NC2C3CC4CC(C3)CC2C4)c1=O (stereo partly drawn) [II-133, (S)-N1-(1-(2-(2-adamantylamino)-2-oxoethyl)-2-oxo-1,2-dihydropyridin-3-yl)-N6-methyl-2-(1-methyl-1H-1,2,3-triazole-4-carboxamido)-5-oxohexanediamide]	400 to 2500 nM	< 1	1 to 10 ×10⁻⁶ cm/s
CNC(=O)C(=O)CC[C@H](NC(=O)c1cc2ccccc2[nH]1)C(=O)Nc1cccn(CC(=O)NC2C3CC4CC(C3)CC2C4)c1=O (stereo partly drawn) [II-9, (S)-2-(1H-indole-2-carboxamido)-N1-(1-(2-(2-adamantylamino)-2-oxoethyl)-2-oxo-1,2-dihydropyridin-3-yl)-N6-methyl-5-oxohexanediamide]	< 40 nM	1 to 3	1 to 10 ×10⁻⁶ cm/s
